Assay [1] deals with BH4 production in human peripheral blood mononuclear cells (PBMCs). The assay can be described thus: hPBMC assay, inhibition of BH4 production by LC-MS (anti-CD3/anti-CD28 stimulated). The format is cell-based. To be noted: PBMC, read-out: hPBMC IC50.
Assay [2] addresses SNAP-hSPR (sepiapterin reductase, SPR) (Homo sapiens, UniProt P35270). The experiment in a line: biochemical. The format is binding. Particulars: terbium labelled SNAP-hSPR / SSZ labelled SNAP-EGFP; read-out: hTR-FRET IC50.
Excerpt: TR-FRET Assay: A TR-FRET (homogeneous, time-resolved, fluorescence resonance energy transfer) assay was used to assess activity of compounds following standard assay conditions. […] Compounds were screened at different concentrations and IC50 values calculated.
Terbium labelled SNAP-hSPR and SSZ (sulfasalazine) labelled SNAP-EGFP were used as the protein pair in this assay. Compounds were screened at different concentrations, and 1050 and Kd values calculated.

For 55 compounds, IC50 results are on record in patent US9963462B2 (priority 2015, dated 2018).

Chain of SNAP-hSPR (sepiapterin reductase, SPR) (P35270 whole entry): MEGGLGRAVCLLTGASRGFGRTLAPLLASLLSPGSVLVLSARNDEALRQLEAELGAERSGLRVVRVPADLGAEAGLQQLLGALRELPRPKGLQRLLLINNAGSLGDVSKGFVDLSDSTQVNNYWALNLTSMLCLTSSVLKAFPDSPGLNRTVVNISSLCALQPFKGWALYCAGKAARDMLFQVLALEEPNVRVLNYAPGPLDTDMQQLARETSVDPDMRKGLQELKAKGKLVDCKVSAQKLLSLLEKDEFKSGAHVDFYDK

Turning to `Cc1c(C(=O)N2CC3CC(C2)N3C2CCC2)cnn1-c1nn2cccc2c(=O)[nH]1` [Q-1168], the figures for the IC50 in assay [1] and in assay [2] were 58 nM and 3 nM, respectively.
For `Cc1c(C(=O)N2CC3CC(C2)N3C(=O)OC(C)(C)C)cnn1-c1nn2cccc2c(=O)[nH]1` [Q-1170] the same measures were 160 nM and 1 nM.
As to `Cc1c(C(=O)N2CCN(c3ncc(-c4ccccc4C(F)(F)F)o3)CC2)cnn1-c1nn2cccc2c(=O)[nH]1` [Q-1171], the IC50 in assay [1] came to 140 nM; in assay [2], 10 nM.
The like results for `Cc1c(C(=O)N2CCN(c3nc(-c4ccccc4C#N)cs3)CC2)cnn1-c1nn2cccc2c(=O)[nH]1` [Q-1172] were, in that order, 180 nM and 3 nM.
The like results for `Cc1c(C(=O)N2CCN(c3nc(-c4cccc(C(F)(F)F)c4)cs3)CC2)cnn1-c1nn2cccc2c(=O)[nH]1` [Q-1173] were, in that order, 290 nM and 20 nM.
For `Cc1c(C(=O)N2CC3CCCC(C2)C3=CC(F)(F)F)cnn1-c1nn2cccc2c(=O)[nH]1` [Q-1174] the same measures were 22 nM and 1 nM.
On to `Cc1c(C(=O)N2CCN(c3ncc(-c4ccc(C(F)(F)F)cc4)o3)CC2)cnn1-c1nn2cccc2c(=O)[nH]1` [Q-1175], for which the IC50 in assay [1] came out at 450 nM; in assay [2], 20 nM.
For `Cc1c(C(=O)N2CCN(c3ncc(-c4cccc(Cl)c4)o3)CC2)cnn1-c1nn2cccc2c(=O)[nH]1` [Q-1176] the same measures were 280 nM and 9 nM.
For `Cc1c(C(=O)NC2CC(F)(F)C2)cnn1-c1nn2cccc2c(=O)[nH]1` [Q-1177] the same measures were 1300 nM and 9 nM.
For `Cc1c(C(=O)N2CCN(c3nnc(-c4ccc(C(F)(F)F)cn4)o3)CC2)cnn1-c1nn2cccc2c(=O)[nH]1` [Q-1178] the same measures were 2600 nM and 9 nM.
Take `Cc1c(C(=O)N2CCN(c3nc(-c4ccc(Cl)nc4)cs3)CC2)cnn1-c1nn2cccc2c(=O)[nH]1` [Q-1179]: the IC50 was 110 nM in assay [1] and 2 nM in assay [2].
For `Cc1c(C(=O)N2CCN(c3nc(-c4ccc(F)nc4)cs3)CC2)cnn1-c1nn2cccc2c(=O)[nH]1` [Q-1180] the same measures were 47 nM and 2 nM.
Turning to `Cc1c(C(=O)N2CCN(c3nc(-c4cccc(C#N)c4)cs3)CC2)cnn1-c1nn2cccc2c(=O)[nH]1` [Q-1181], the IC50 in assay [1] is 11 nM; in assay [2] it was 2 nM.
The like results for `Cc1c(C(=O)N2CCN(c3nc(-c4ccncc4)cs3)CC2)cnn1-c1nn2cccc2c(=O)[nH]1` [Q-1182] were, in that order, 48 nM and 1 nM.
The like results for `Cc1c(C(=O)N2CCCN(CCC(F)(F)F)CC2)cnn1-c1nn2cccc2c(=O)[nH]1` [Q-1183] were, in that order, 110 nM and 4 nM.
The like results for `Cc1c(C(=O)N2CCC(C3CC3)CC2)nnn1-c1nn2cccc2c(=O)[nH]1` [Q-1184] were, in that order, 37 nM and 2 nM.
For the compound `Cc1c(C(=O)N2CC(N3CCC(F)(F)C3)C2)nnn1-c1nn2cccc2c(=O)[nH]1` [Q-1185], the results for the IC50 in assay [1] and in assay [2] were 110 nM and 1 nM, respectively.
The like results for `Cc1c(C(=O)N2C[C@H]3CCC[C@@H](C2)[C@H]3CC(F)(F)F)cnn1-c1nn2cccc2c(=O)[nH]1` [Q-1186] were, in that order, 36 nM and 1 nM.
Consider `Cc1c(C(=O)N2CCc3nc(-c4ccncc4)sc3C2)cnn1-c1nn2cccc2c(=O)[nH]1` [Q-1187], for which the figures for the IC50 in assay [1] and in assay [2] were 190 nM and 4 nM, respectively.
For `Cc1c(C(=O)N2CCN(c3nnc(-c4ccccc4Cl)o3)CC2)cnn1-c1nn2cccc2c(=O)[nH]1` [Q-1188] the same measures were 290 nM and 6 nM.
For `Cc1c(C(=O)N2CCN(c3ncc(-c4ccc(Cl)nc4)o3)CC2)nnn1-c1nn2cccc2c(=O)[nH]1` [Q-1190] the same measures were 59 nM and 10 nM.
For `Cc1c(C(=O)N2CCN(C3CCC3)CC2)nnn1-c1nn2cccc2c(=O)[nH]1` [Q-1191] the same measures were 20 nM and 1 nM.
Take `Cc1c(C(=O)N2CCC3(CCCC3=O)CC2)cnn1-c1nn2cccc2c(=O)[nH]1` [Q-1192]: the IC50 in assay [1] is 40 nM; in assay [2] it was 1 nM.
For `Cc1c(C(=O)N2CCN(c3nnc(-c4cccc(F)c4)o3)CC2)cnn1-c1nn2cccc2c(=O)[nH]1` [Q-1193] the same measures were 160 nM and 7 nM.
The like results for `Cc1c(C(=O)N2CC3CC(C2)N3CCC(F)(F)F)cnn1-c1nn2cccc2c(=O)[nH]1` [Q-1194] were, in that order, 60 nM and 2 nM.
The like results for `Cc1c(C(=O)N2CCN(c3nc(-c4ccnc(F)c4)cs3)CC2)cnn1-c1nn2cccc2c(=O)[nH]1` [Q-1196] were, in that order, 52 nM and 3 nM.
With `Cc1c(C(=O)N2CCN(c3ncc(-c4ccc(F)nc4)s3)CC2)cnn1-c1nn2cccc2c(=O)[nH]1` [Q-1197], the results for the IC50 in assay [1] and in assay [2] were 26 nM and 3 nM, respectively.
For `COCC(C1CCN(C(=O)c2cnn(-c3nn4cccc4c(=O)[nH]3)c2C)CC1)C(F)(F)F` (centres unmarked) [Q-1198] the same measures were 17 nM and 1 nM.
For `Cc1c(C(=O)N2C[C@H]3CCC[C@@H](C2)[C@@H]3CC(F)(F)F)cnn1-c1nn2cccc2c(=O)[nH]1` [Q-1199] the same measures were 29 nM and 1 nM.
The like results for `Cc1c(C(=O)N2CCN(CC(F)(F)F)C3(CCC3)C2)cnn1-c1nn2cccc2c(=O)[nH]1` [Q-1200] were, in that order, 150 nM and 1 nM.
For the compound `Cc1c(C(=O)N2CCN(C3CC3)CC2)nnn1-c1nn2cccc2c(=O)[nH]1` [Q-1201], the IC50 in assay [1] worked out at 69 nM; in assay [2] it was 1 nM.
The like results for `Cc1c(C(=O)N2CCN(c3ncc(-c4ccc(F)cc4)o3)CC2)cnn1-c1nn2cccc2c(=O)[nH]1` [Q-1202] were, in that order, 260 nM and 5 nM.
The like results for `Cc1c(C(=O)N2CCN(c3ncc(-c4ccccc4C#N)o3)CC2)cnn1-c1nn2cccc2c(=O)[nH]1` [Q-1203] were, in that order, 180 nM and 6 nM.
The like results for `Cc1c(C(=O)N2CCCN(C3CC3)CC2)cnn1-c1nn2cccc2c(=O)[nH]1` [Q-1205] were, in that order, 35 nM and 3 nM.
On to `Cc1c(C(=O)N2CCc3nc(-c4cccnc4)sc3C2)cnn1-c1nn2cccc2c(=O)[nH]1` [Q-1206], for which the IC50 was found to be 70 nM in assay [1] and 1 nM in assay [2].
The like results for `CCCC(=O)C1CCN(C(=O)c2cnn(-c3nn4cccc4c(=O)[nH]3)c2C)CC1` [Q-1207] were, in that order, 29 nM and 1 nM.
For `Cc1c(C(=O)N2CCC(C(=O)C3CC3)CC2)cnn1-c1nn2cccc2c(=O)[nH]1` [Q-1208] the same measures were 61 nM and 1 nM.
For `Cc1c(C(=O)N2CCC3(CCC3=O)CC2)cnn1-c1nn2cccc2c(=O)[nH]1` [Q-1209] the same measures were 920 nM and 1 nM.
As to `Cc1c(C(=O)N2CCN(c3nc(-c4ccc(C#N)cc4)cs3)CC2)cnn1-c1nn2cccc2c(=O)[nH]1` [Q-1210], the IC50 was determined as 84 nM in assay [1] and 2 nM in assay [2].
For `Cc1c(C(=O)N2CCN(c3ncc(-c4ccc(C#N)cc4)s3)CC2)cnn1-c1nn2cccc2c(=O)[nH]1` [Q-1211] the same measures were 160 nM and 10 nM.
The like results for `Cc1c(C(=O)N2CCN(c3ncc(-c4cccc(C#N)c4)o3)CC2)cnn1-c1nn2cccc2c(=O)[nH]1` [Q-1212] were, in that order, 13 nM and 1 nM.
The like results for `Cc1c(C(=O)N2CCN(C(=O)C3CC3)CC2)cnn1-c1nn2cccc2c(=O)[nH]1` [Q-1213] were, in that order, 890 nM and 3 nM.
In the case of `CCC(=O)N1CCN(C(=O)c2cnn(-c3nn4cccc4c(=O)[nH]3)c2C)CC1` [Q-1214], the half-inhibitory concentration (IC50) was found to be 1000 nM in assay [1] and 6 nM in assay [2].
The like results for `CC(=O)C1(c2ccccc2)CCN(C(=O)c2cnn(-c3nn4cccc4c(=O)[nH]3)c2C)CC1` [Q-1215] were, in that order, 17 nM and 1 nM.
For `Cc1c(C(=O)N2CCN(CC(F)(F)F)c3ccccc32)cnn1-c1nn2cccc2c(=O)[nH]1` [Q-1216] the same measures were 46 nM and 1 nM.
As to `Cc1c(C(=O)N2CCC2c2cccc(F)n2)cnn1-c1nn2cccc2c(=O)[nH]1` (centres unmarked) [Q-1217], the IC50 in assay [1] was determined as 270 nM; in assay [2], 3 nM.
For `Cc1c(C(=O)N2CCCN(C(C)C(F)(F)F)CC2)cnn1-c1nn2cccc2c(=O)[nH]1` (centres unmarked) [Q-1218] the same measures were 130 nM and 3 nM.
The like results for `Cc1c(C(=O)N2CCC(n3cccc3C#N)CC2)cnn1-c1nn2cccc2c(=O)[nH]1` [Q-1219] were, in that order, 79 nM and 1 nM.
Consider `Cc1c(C(=O)N2CCC3(CCCCC3=O)CC2)cnn1-c1nn2cccc2c(=O)[nH]1` [Q-1220], for which the IC50 in assay [1] worked out at 22 nM; in assay [2] it was 1 nM.
The like results for `O=C(c1cn(-c2nn3cccc3c(=O)[nH]2)nn1)N1CCN(C2CC2)CC1` [Q-1221] were, in that order, 37 nM and 1 nM.
As for `O=C(c1cn(-c2nn3cccc3c(=O)[nH]2)nn1)N1CCC(C2CC2)CC1` [Q-1222], the results for the IC50 in assay [1] and in assay [2] were 25 nM and 1 nM, respectively.
As for `O=C(c1cn(-c2nn3cccc3c(=O)[nH]2)nn1)N1CCN(CC(F)(F)F)CC1` [Q-1223], the IC50 was 24 nM in assay [1] and 3 nM in assay [2].
Take `O=C(c1cn(-c2nn3cccc3c(=O)[nH]2)nn1)N1CC(N2CCC(F)(F)C2)C1` [Q-1224]: the results for the IC50 in assay [1] and in assay [2] were 370 nM and 9 nM, respectively.
The like results for `Cc1c(C(=O)N2CC3CC(C2)N3CC(F)(F)F)nnn1-c1nn2cccc2c(=O)[nH]1` [Q-1225] were, in that order, 29 nM and 1 nM.
For `O=C(c1cn(-c2nn3cccc3c(=O)[nH]2)nn1)N1CC2CC(C1)N2CC(F)(F)F` [Q-1226] the same measures were 410 nM and 7 nM.

As a reminder, the IC50 is the concentration at which inhibition is half-maximal.
